From PubChem BioAssay (NCI)
“And” between values parts separate entries of the source, which are not always exact repeats. Equal values may be shown once.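 Following 48 hours of exposure in 96-well plates, responses at five concentrations were used to interpolate endpoints linearly. GI50 = concentration required for 50% inhibition of growth. TGI denotes the concentration required for complete inhibition of growth.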

Tests used:
Experiment in all cases: growth of human tumour cells (NCI), 48 h
[1] = system: SR leukemia
[2] = system: HL-60(TB) leukemia
[3] = system: HCC-2998 colon
[4] = system: OVCAR-8 ovarian
[5] = system: K-562 leukemia
[6] = system: KM12 colon
[7] = system: SF-295 CNS
[8] = system: SF-539 CNS
[9] = system: LOX IMVI melanoma
[10] = system: MDA-N

O=C(/C=C/c1ccc(Cl)c(Cl)c1)CCN1CCN(CCC(=O)/C=C/c2ccc(Cl)c(Cl)c2)CC1
TGI [1]: > 100 µM
TGI [2]: > 100 µM
TGI [3]: 28.9 µM
TGI [4]: > 100 µM
TGI [5]: > 100 µM
TGI [6]: 40.6 µM
TGI [7]: 46.5 µM
TGI [8]: 30.7 µM
TGI [9]: 33.7 µM

CCCC(=O)N[C@@H](Cc1cc(I)c(O)c(I)c1)C(=O)NCCCNCCCCNCCCNC(=O)[C@@H](N)CCCN=C(N)N
TGI [1]: > 100 µM
TGI [2]: > 100 µM
TGI [3]: > 100 µM
TGI [4]: > 100 µM
TGI [5]: > 100 µM
TGI [6]: > 100 µM
TGI [8]: > 100 µM
TGI [9]: > 100 µM

FC(F)(F)C1(C(F)(F)F)OC(Cl)(Cl)C(Cl)(Cl)O1
TGI [10]: > 10 µM
TGI [3]: > 10 µM
TGI [4]: > 10 µM
TGI [6]: > 10 µM
TGI [7]: > 10 µM
TGI [8]: > 10 µM
TGI [9]: > 10 µM

Nc1ccccc1Sc1ccc(Cl)cc1
TGI [1]: 57.8 µM
TGI [2]: 53.3 µM
TGI [3]: > 100 µM
TGI [4]: > 100 µM
TGI [5]: 94.4 µM
TGI [6]: > 100 µM
TGI [7]: > 100 µM
TGI [8]: > 100 µM
TGI [9]: > 100 µM

Cc1ccc(S(=O)(=O)OCC23CCC(C4CC42)C2CC23)cc1 (stereo not given)
TGI [1]: > 100 µM
TGI [2]: 37.8 µM
TGI [3]: > 100 µM
TGI [4]: > 100 µM
TGI [5]: > 100 µM
TGI [7]: > 100 µM
TGI [9]: > 100 µM

CC1(C)OC[C@@]2([C@@H]3CC[C@@H](C3)C2(C)C)N1O
TGI [2]: > 100 µM
TGI [10]: > 100 µM
TGI [4]: > 100 µM
TGI [5]: > 100 µM
TGI [6]: > 100 µM
TGI [7]: > 100 µM
TGI [8]: > 100 µM
TGI [9]: > 100 µM

Cc1ccc(NC(=S)NNC(=O)c2cc(-c3ccccc3)nc3ccccc23)cc1C
TGI [1]: 36.4 µM
TGI [10]: 40 µM
TGI [3]: 35.2 µM
TGI [4]: 44.5 µM
TGI [5]: 79.5 µM
TGI [6]: 80 µM
TGI [7]: 29.6 µM
TGI [8]: 40.3 µM

CC(C)(C)OC(=O)/C=C/C(=O)O/C=C/[N+](=O)[O-]
TGI [1]: > 100 µM
TGI [10]: > 100 µM
TGI [3]: > 100 µM
TGI [4]: > 100 µM
TGI [5]: > 100 µM
TGI [6]: > 100 µM
TGI [7]: > 100 µM
TGI [8]: > 100 µM
TGI [9]: > 100 µM

CC1OC(OC2C(Oc3cc(O)c4c(=O)cc(-c5ccc(O)cc5)oc4c3)OC(CO)C(O)C2O)C(O)C(O)C1O (stereo not given)
TGI [2]: > 100 µM
TGI [4]: > 100 µM
TGI [5]: > 100 µM
TGI [6]: > 100 µM
TGI [7]: > 100 µM
TGI [8]: > 100 µM
TGI [9]: > 100 µM

COc1ccc(/C=N/n2c(Cc3ccc(Cl)cc3)n[nH]c2=O)cc1
TGI [1]: > 100 µM
TGI [10]: > 100 µM
TGI [3]: > 100 µM
TGI [4]: 74.6 µM
TGI [5]: > 100 µM
TGI [6]: > 100 µM
TGI [7]: 49.9 µM
TGI [8]: > 100 µM

C=CCN1C(=O)/C(=C/c2cccs2)N=C1SC1OC(COC(=O)c2ccccc2)C(OC(=O)c2ccccc2)C1OC(=O)c1ccccc1 (stereo not given)
TGI [1]: > 100 µM
TGI [2]: > 100 µM
TGI [3]: > 100 µM
TGI [4]: > 100 µM
TGI [5]: > 100 µM
TGI [6]: > 100 µM
TGI [7]: > 100 µM
TGI [8]: > 100 µM
TGI [9]: > 100 µM

CCO[C@H]1C[C@@H](c2ccccc2)[C@]2(C)C[C@H](C(=O)OC)ON2O1
TGI [2]: > 100 µM
TGI [10]: > 100 µM
TGI [4]: > 100 µM
TGI [5]: > 100 µM
TGI [6]: > 100 µM
TGI [7]: > 100 µM
TGI [8]: > 100 µM
TGI [9]: > 100 µM

O=[N+]([O-])c1cccc2nc3ccccc3c(NCCNCCO)c12
TGI [2]: 0.109 µM
TGI [3]: 0.0101 µM
TGI [4]: 0.158 µM and 0.0328 µM
TGI [5]: 0.0448 µM
TGI [6]: 0.0277 µM and 0.0202 µM
TGI [7]: 0.0367 µM and 0.133 µM
GI50 [8]: 0.0116 µM
TGI [8]: 0.136 µM and 0.0384 µM
TGI [9]: 0.0184 µM and 0.112 µM

CC(=O)/C=C/c1c[nH]c(=O)[nH]c1=O
TGI [2]: 528 µM
TGI [3]: 480 µM
TGI [4]: 873 µM
TGI [5]: 967 µM
TGI [6]: 439 µM
TGI [7]: 751 µM
TGI [8]: 601 µM
TGI [9]: 354 µM

COc1ccc(S(=O)Cc2cc(OC)ccc2OC)cc1 (stereo not given)
TGI [10]: > 100 µM
TGI [3]: > 100 µM
TGI [4]: > 100 µM
TGI [5]: > 100 µM
TGI [6]: > 100 µM
TGI [7]: > 100 µM
TGI [8]: > 100 µM
TGI [9]: > 100 µM

Cn1c2c(c3ccccc31)CC(=O)N1CCCCC1C21OCCO1 (stereo not given)
TGI [1]: > 100 µM
TGI [10]: > 100 µM
TGI [3]: > 100 µM
TGI [4]: > 100 µM
TGI [6]: > 100 µM
TGI [7]: > 100 µM

O=C(NCCCCNCCCNC(=O)C(F)(F)F)C(F)(F)F
TGI [1]: > 100 µM
TGI [2]: > 100 µM
TGI [3]: > 100 µM
TGI [4]: > 100 µM
TGI [5]: > 100 µM
TGI [6]: > 100 µM
TGI [7]: > 100 µM
TGI [8]: > 100 µM

Cc1cc2c(cc1Cl)Sc1nnc(C)n1S2(=O)=O
TGI [2]: 24.4 µM
TGI [10]: 29.7 µM
TGI [3]: 33.9 µM
TGI [4]: 48.8 µM
TGI [5]: 35.4 µM
TGI [6]: 30.9 µM
TGI [7]: 33.8 µM
TGI [8]: 36.4 µM
TGI [9]: 23.6 µM
